Source: article PMC11054735, “LDLR-Mediated Targeting and Productive Uptake of siRNA-Peptide Ligand Conjugates In Vitro and In Vivo” (Pharmaceutics, 2024)
Read-outs that look alike come from different tables or passages of the source.

Columns and labels:
[1] = incubation at 2 mM in freshly collected mouse blood at 37 °C; LC-MS/MS on plasma fractions; peptide described elsewhere; cited from earlier work
Description: Among the family of peptide-based vectors we identified, the VH4127 (cyclo[(D)-Cys-Met-Thz-Arg-Leu-Arg-Gly-Pen]) peptide ligand used in this study was described elsewhere. Briefly, it was obtained by high-throughput screening of phage display peptide libraries on engineered cell lines expressing the mouse and human LDLR, and was further chemically optimized for optimal LDLR-binding affinity and plasma stability. The VH4127 peptide contains three non-natural amino-acids D-Cys, Thz, and Pen (at positions 1, 3, and 8, respectively), and a disulfide bridge between D-Cys and Pen side ...

[2] = molecular target: T1, His-tagged recombinant mouse LDLR (extracellular domain, mLDLR-ECD) (Mus musculus, UniProt P35951); test: SPR LDLR-binding affinity (multiple-cycle kinetics, equilibrium KD); details: SPR Biacore T200, 25 °C, mLDLR on NiHC1000m chip (700–2000 RU), MCK mode, 50 mM HEPES-NaOH pH 7.4 running buffer, analyte 0.6–640 nM or 0.6–40 nM, equilibrium response fit, means ± SD of n = 6 (triplicate analysis of 2 independent experiments), read-out: Affinities SPR (equilibrium dissociation constant, KD)
T1 construct: recombinant mouse LDLR (extracellular domain, mLDLR-ECD); purchased SinoBiological (Beijing, China)
Description: His-tagged recombinant mouse LDLR (extracellular domain, mLDLR-ECD) was purchased from SinoBiological (Beijing, China). SPR measurements were performed at 25 °C using a Biacore T200 apparatus (Cytiva) and 50 mM HEPES-NaOH pH 7.4, 150 mM NaCl, 50 μM EDTA, 0.005% Tween-20 (v/v), 10 mM Imidazole as running buffer. mLDLR was immobilized on a NiHC1000 m sensor chip (Xantec, Dusseldorf, Germany) at a density of around 10–30 fmol/mm^2. A control flowcell without mLDLR was used as reference. The multiple-cycle kinetic (MCK) method was applied to study molecular interactions of peptides and conjugates. Seven to 11 different concentrations of the analyte were prepared by two-fold dilutions in running buffer (0.6–640 nM or 0.6–40 nM) and successively injected over the flowcells during 120 s at 30 μL/min with a dissociation time of 300 s. Blank runs of running buffer were performed in the same conditions and subtracted from sample runs before evaluation. Equilibrium dissociation constants (KD) were calculated by plotting saturation binding curves using the equilibrium response at the plateau of all curves with BiaEvaluation version 2.0 software. All data are the means of six determinations (triplicate analysis of 2 independent experiments).

[3] = test system: mSOD1 mRNA in Neuro-2a cells; test: Gene silencing after transfection (DharmaFECT 2) in Neuro-2a cells, RT-qPCR; type: cell-based, mouse; details: DharmaFECT 2, 30 nM, 24 h at 37 °C
Description: Neuro-2a cells were plated in a 96-well plate at 4000 cells/well one day before experiments. According to DharmaFECT general manufacturer’s protocol (Horizon Discovery), cells were transfected with a mix containing the DharmaFECT 2 and 30 nM of tested compound. […] At the end of the incubation period, Neuro-2a cells were washed once with D-PBS before RNA extraction.
(§1) For in vitro free uptake experiments, the total RNA was extracted using the NucleoSpin RNA XS (Macherey Nagel, Hoerdt, France) according to the manufacturer’s recommendations. For transfection experiments the SuperScript™ IV CellsDirect™ cDNA Synthesis kit (Thermo Fisher Scientific) was used according to manufacturer’s recommendations. For in vivo experiments, mouse organs were crushed in 2 mL tubes pre-filled with ceramic mixture in Precellys®Cryolys® Evolution (Bertin, Montigny le Bretonneux, France) with a QIAZOL lysis buffer (Qiagen, Venlo, The Netherlands). A volume of 150 µL of chloroform (Sigma Aldrich) was added to 750 µL of tissue homogenate and a phenol/chloroform separation was performed using centrifugation for 15 min at 6000× g at 4 °C. Aqueous phases were recovered and RNA extraction was performed with the RNeasy 96 QIAcube HT Kit (Qiagen) according to the manufacturer’s recommendations, in a QIACUBE HT instrument (Qiagen). […] For reverse transcription (RT), 500 ng of total RNA were used (except for cells treated with SuperScript™ IV CellsDirect™ cDNA Synthesis), and cDNA synthesis was performed using the High-Capacity RNA-to-cDNA™ kit (Thermo Fisher Scientific) according to the manufacturer’s recommendations.
(§2) Real-time quantitative PCR (RT-qPCR) assays were performed using the CFX96 Touch Real-Time PCR Detection System (Bio-Rad, Hercules, CA, USA). […] The following primers were used: Mm01344233_g1 SOD1 (mouse), Mm02526700_g1 RpL13 (mouse), Mm01352366_m1 SDHA (mouse), Mm00457191_m1 PSMC4 (mouse). RpL13, SDHA, or PSMC4 served as internal controls for sample normalization, and the comparative cycle threshold method (2−ΔΔCt) was used for data quantification. Finally, gene expression ratios (compared to control samples) were determined.
(A) Transfection of unconjugated siSOD1 and siSOD1-peptide conjugates on Neuro-2a cells at 30 nM. […] (B) Free uptake experiments of unconjugated siSOD1 and siSOD1-peptide conjugates on Neuro-2a cells at 1 µM. After 3 days at 37 °C, mSOD1 mRNA levels were quantified using RT-qPCR. Each dot corresponds to the mean value obtained in independent experiments. (C) Free uptake experiments of siSOD1-31, -35, -36, -37 conjugates with their respective negative controls siSOD1-31Sc, -35Sc, -36Sc, -37Sc on Neuro-2a cells at 1 µM.

[4] = test system: mSOD1 mRNA in Neuro-2a cells; test: Gene silencing by free uptake in Neuro-2a cells, RT-qPCR; type: cell-based, mouse; details: 1 µM, 3 days at 37 °C, DMEM with 1% fetal calf serum
Description: Neuro-2a cells were plated in a 48-well plate at 13,000 cells/well the day before the test. All siRNA and conjugates were incubated during 3 days at 37 °C with 1 µM of conjugate prepared in DMEM supplemented with 1% fetal calf serum. At the end of the incubation period, cells were washed once with D-PBS before RNA extraction. For in vitro free uptake experiments, the total RNA was extracted using the NucleoSpin RNA XS (Macherey Nagel, Hoerdt, France) according to the manufacturer’s recommendations. For transfection experiments the SuperScript™ IV CellsDirect™ cDNA Synthesis kit (Thermo Fisher Scientific) was used according to manufacturer’s recommendations. […] Aqueous phases were recovered and RNA extraction was performed with the RNeasy 96 QIAcube HT Kit (Qiagen) according to the manufacturer’s recommendations, in a QIACUBE HT instrument (Qiagen). […] For reverse transcription (RT), 500 ng of total RNA were used (except for cells treated with SuperScript™ IV CellsDirect™ cDNA Synthesis), and cDNA synthesis was performed using the High-Capacity RNA-to-cDNA™ kit (Thermo Fisher Scientific) according to the manufacturer’s recommendations. Real-time quantitative PCR (RT-qPCR) assays were performed using the CFX96 Touch Real-Time PCR Detection System (Bio-Rad, Hercules, CA, USA). […] Finally, gene expression ratios (compared to control samples) were determined. […] (A) Transfection of unconjugated siSOD1 and siSOD1-peptide conjugates on Neuro-2a cells at 30 nM. […] (B) Free uptake experiments of unconjugated siSOD1 and siSOD1-peptide conjugates on Neuro-2a cells at 1 µM. […] Each dot corresponds to the mean value obtained in independent experiments.

SOD1 mRNA in liver = test: In vivo gene silencing in mouse liver after i.v. administration, RT-qPCR; details: C57Bl/6JRj mice, single i.v. bolus 1 µmole/kg (15 mg/kg siRNA) in PBS, liver 7 days post-administration
Description: Wild-type male C57Bl/6JRj mice (Janvier Labs, Le Genest-Saint-Isle, France) aged 10–12 weeks old were used. All animal studies were approved by the ethics committee for animal experimentation (CEEA-N°14) and approved by French ministry of agriculture (MRC). […] Intravenous (i.v., lateral tail vein) administrations (15 mg/kg) were performed on conscious restrained mice. Following a 7-day observational period, animals were euthanized by an intraperitoneal overdose of Ketamin-Xylasine mixture (Sigma Aldrich, Saint-Quentin-Fallavier, France), and tissue samples were collected after extensive blood wash-out by intracardiac perfusion (Left ventricle, Flow rate 8 mL/min) of a saline solution (0.9%) and immediately stored at −20 °C in 10 vol NucleoProtect RNA stabilization reagent (Macherey-Nagel, Düren, Germany) before further RNA extraction and target mRNA quantification.
as §1, §2
The in vivo targeting and functional uptake potential of LDLR-binding siSOD1-peptide conjugates was evaluated as follows.
Mice were injected (i.v. lateral tail vein) with unconjugated siRNAs and siSOD1-peptide conjugates in PBS (15 mg/kg). Seven days post-administration mice were euthanized and perfused with saline solution (0.9% NaCl). Organs were collected to assess the SOD1 mRNA levels using RT-qPCR.

T1 sequence (P35951 22-790 limits assumed): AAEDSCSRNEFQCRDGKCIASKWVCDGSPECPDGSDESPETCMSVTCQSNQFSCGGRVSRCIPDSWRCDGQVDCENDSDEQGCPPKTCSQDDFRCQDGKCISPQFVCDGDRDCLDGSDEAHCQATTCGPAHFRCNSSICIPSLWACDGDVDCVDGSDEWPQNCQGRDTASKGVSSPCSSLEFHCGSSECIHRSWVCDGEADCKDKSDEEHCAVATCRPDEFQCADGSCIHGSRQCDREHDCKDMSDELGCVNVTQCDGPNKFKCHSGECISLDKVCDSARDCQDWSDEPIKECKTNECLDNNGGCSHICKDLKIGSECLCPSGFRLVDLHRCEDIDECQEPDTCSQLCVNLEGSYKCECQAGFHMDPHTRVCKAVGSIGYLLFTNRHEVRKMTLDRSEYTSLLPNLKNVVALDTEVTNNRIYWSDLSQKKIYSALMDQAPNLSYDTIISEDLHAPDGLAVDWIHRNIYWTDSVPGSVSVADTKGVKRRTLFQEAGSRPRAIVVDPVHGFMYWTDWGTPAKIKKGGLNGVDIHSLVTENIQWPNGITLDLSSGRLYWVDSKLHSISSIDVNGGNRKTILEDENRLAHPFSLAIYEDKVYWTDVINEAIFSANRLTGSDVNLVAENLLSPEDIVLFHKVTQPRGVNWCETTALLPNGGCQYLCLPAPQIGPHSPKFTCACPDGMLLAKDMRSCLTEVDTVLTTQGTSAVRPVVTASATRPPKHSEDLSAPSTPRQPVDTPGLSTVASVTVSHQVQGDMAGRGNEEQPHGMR

CCC(=O)N[C@@H]1CSSC(C)(C)[C@@H](C(N)=O)NC(=O)CNC(=O)[C@H](CCCNC(=N)N)NC(=O)[C@H](CC(C)C)NC(=O)[C@H](CCCNC(=N)N)NC(=O)[C@@H]2CSCN2C(=O)[C@H](CCSC)NC1=O [VH4127, cyclo[(D)-Cys-Met-Thz-Arg-Leu-Arg-Gly-Pen]]
In vitro plasma stability, estimated half-life [1]: 4.27 h

Pr-K(N3)-PEG2-[cMThzRLRGPen]c-NH2 (disulfide) [siSOD1-31]
Kd ([2]; SD): 0.104 ± 0.0117 µM | Kd [2]: 0.087 to 0.104 µM | In Vitro KD on N2A, Transfection (mSOD1 mRNA knock-down) [3]: >90% | In Vitro KD on N2A, Free Uptake (mSOD1 mRNA knock-down) [4]: 55% | In Vivo KD, Liver (SOD1 mRNA knock-down) (SOD1 mRNA in liver): 40%

Pr-K(N3)-PEG2-[cMThzRLRGPen]c-NH2 (disulfide) [siSOD1-33]
Kd ([2]; SD): 0.0128 ± 0.0019 µM | In Vitro KD on N2A, Transfection (mSOD1 mRNA knock-down) [3]: >90% | In Vivo KD, Liver (SOD1 mRNA knock-down) (SOD1 mRNA in liver): ~50%

Pr-K(N3)-PEG2-[cMThzRLRGPen]c-NH2 (disulfide) [siSOD1-36]
Kd ([2]; SD): 0.025 ± 0.0012 µM | In Vitro KD on N2A, Transfection (mSOD1 mRNA knock-down) [3]: >90% | In Vitro KD on N2A, Free Uptake (mSOD1 mRNA knock-down) [4]: 60% | In Vivo KD, Liver (SOD1 mRNA knock-down) (SOD1 mRNA in liver): 30%

Pr-K(N3)-PEG2-[cMThzRLRGPen]c-NH2 (disulfide) [siSOD1-37]
Kd ([2]; SD): 0.0319 ± 0.0016 µM | In Vitro KD on N2A, Transfection (mSOD1 mRNA knock-down) [3]: >90% | In Vitro KD on N2A, Free Uptake (mSOD1 mRNA knock-down) [4]: 60% | In Vivo KD, Liver (SOD1 mRNA knock-down) (SOD1 mRNA in liver): 35%

Pr-[cMThzRLRGPenG]c-OH (disulfide) [siSOD1-35]
Kd ([2]; SD): 0.0113 ± 0.0029 µM | In Vitro KD on N2A, Transfection (mSOD1 mRNA knock-down) [3]: >90% | In Vitro KD on N2A, Free Uptake (mSOD1 mRNA knock-down) [4]: improved KD effect compared to its non-binding control siSOD1-35sc | In Vivo KD, Liver (SOD1 mRNA knock-down) (SOD1 mRNA in liver): 50%

Pr-[cMThzRLRGPen]c-PEG2-K(N3)-NH2 (disulfide) [siSOD1-32]
Kd ([2]; SD): 0.0868 ± 0.0171 µM | Kd [2]: 0.087 to 0.104 µM | In Vitro KD on N2A, Transfection (mSOD1 mRNA knock-down) [3]: 40% | In Vitro KD on N2A, Free Uptake (mSOD1 mRNA knock-down) [4]: did not show improvement compared to the unconjugated 5′P-siSOD1 | In Vivo KD, Liver (SOD1 mRNA knock-down) (SOD1 mRNA in liver): ~ 20%
